Experimental data as given in patent US4581356A, “Triazine derivatives, and pharmaceutical compositions comprising the same” (Fujisawa Pharmaceutical Co., Ltd., priority 1983, dated 1986).

Experiments:
[1] = test system: blood pressure; experiment: Antihypertensive activity in uninephrectomized DOCA/saline hypertensive rats (mean arterial pressure); type: in vivo, male Wister rats; conditions: orally, DOCA rats
Experimental: Five-week old male Wister rats were uninephrectomized under anesthesia. Deoxycorticosterone acetate (DOCA) (30 mg/kg), suspended in peanut oil, was injected subcutaneously twice a week and 1% saline was substituted for the drinking water. Animals with mean blood pressure 150-200 mmHg were used for experiment between 5 and 7 weeks after surgery.
The test compounds were administered intraperitonealy or orally. Blood pressure was measured at the femoral artery by means of a pressure transducer and recorded as electrically integrated values of mean arterial pressure.

[2] = test system: platelet aggregation (ADP as inducer); experiment: Inhibition of ADP-induced platelet aggregation in platelet rich plasma; type: cell-based; conditions: Oryctolagus cuniculus, rabbit PRP, 37° C., ADP 2.5 μM, read-out: ID50 ADP
Experimental: (§1) Platelet rich plasma (PRP) which contains 6.5-7.5×10^8 platelet/ml was prepared from rabbit blood. To the 200 μl of PRP, 5 μl of calcium chloride (1 mM) and 50 μl of pH 7.4 Tris-acetate solution (5 mM) containing 120 mM NaCl and test compound were added successively, and then stirred for 2 min. at 37° C. To the solution, 5 μl of adenosine diphosphate (ADP) (2.5 μM) or collagen (2.5 μg/ml) was added as an aggregation inducer. Aggregation was measured by using an aggregometer (NKK HEMA TRACER 1).

[3] = test system: platelet aggregation (collagen as inducer); experiment: Inhibition of collagen-induced platelet aggregation in platelet rich plasma; type: cell-based; conditions: Oryctolagus cuniculus, rabbit PRP, 37° C., collagen 2.5 μg/ml, read-out: ID50 Collagen
Experimental: as §1

[4] = test system: ulcers (stomach); experiment: Antiulcer activity: inhibition of ulcer area in rats immobilized in water bath; type: in vivo, Sprague-Dawley rats; conditions: orally, 7 hours
Experimental: Sprague-Dawley rats weighing about 200 g were used. Each animal was immobilized in a small cage and put in a water bath allowing to respire. The temperature of the water bath kept at 22° C. The test compound was administered orally just before the immobilization. Seven hours later, the animals were sacrificed and their stomachs were removed. The stomach was then fixed with 2% formalin. The area of ulcers was measured for each animal. The mean area (mm^2) in the test animals was compared with that in the control animals and inhibition effect (%) were calculated.

| SMILES | Effect Max (mean ratio of maximum decrease of blood pressure) ([1]; 0.1 mg/kg (dose a)) [%] | Effect Max (mean ratio of maximum decrease of blood pressure) ([1]; 1 mg/kg (dose b)) [%] | IC50 [2] [nM] | IC50 [3] [nM] | Effect (inhibition of ulcer area) ([4]; 10 mg/kg (dose c)) [%] | Effect (inhibition of ulcer area) ([4]; 32 mg/kg (dose d)) [%] |
| --- | --- | --- | --- | --- | --- | --- |
| CN1C(=O)CCc2cc(C3=NNC(=O)NC3)ccc21 [Example 8 - (4), 6-(1-methyl-2-oxo-1,2,3,4-tetrahydroquinolin-6-yl)-4,5-dihydro-1,2,4-triazin-3(2H)-one] | 15 | 49 | 360 | 240 | 68.0 | 80.0 |
| CN1C(=O)Cc2cc(C3=NNC(=O)NC3)ccc21 [Example 9 - (4), 6-(1-Methyl-2-indolinon-5-yl)-4,5-dihydro-1,2,4-triazin-3(2H)-one] | – | – | 4600 | 2700 | – | – |
| CC(=O)N1CCCc2cc(C3=NNC(=O)NC3C)ccc21 (stereo not drawn) [Example 10 - (5), 6-(1-acetyl-1,2,3,4-tetrahydroquinolin-6-yl)-5-methyl-4,5-dihydro-1,2,4-triazin-3(2H)-one] | – | 40 | 1400 | 540 | – | – |
| CC1NC(=O)NN=C1c1ccc2c(c1)CCCN2 (stereo not drawn) [Example 10 - (6), 6-(1,2,3,4-tetrahydroquinolin-6-yl)-5-methyl-4,5-dihydro-1,2,4-triazin-3(2H)-one] | 33 | 57 | 1300 | 470 | – | – |
| CC(=O)N1CCCc2ccc(C3=NNC(=O)NC3C)cc21 (stereo not drawn) [Example 11 - (3), 6-(1-Acetyl-1,2,3,4-tetrahydroquinolin-7-yl)-5-methyl-4,5-dihydro-1,2,4-triazin-3(2H)-one] | – | – | 3700 | 1900 | – | – |
| CC1NC(=O)NN=C1c1ccc2c(c1)NCCC2 (stereo not drawn) [Example 11 - (4), 6-(1,2,3,4-Tetrahydroquinolin-7-yl)-5-methyl-4,5-dihydro-1,2,4-triazin-3(2H)-one] | – | – | 56000 | 22000 | – | – |
| CC1NC(=O)NN=C1c1ccc2c(ccc(=O)n2C)c1 (stereo not drawn) [Example 12 - (3), 6-(1-Methyl-2-oxo-1,2-dihydroquinolin-6-yl)-5-methyl-4,5-dihydro-1,2,4-triazin-3(2H)-one] | 40 | 58 | 67 | 48 | – | – |
| CC1NC(=O)NN=C1c1ccc2c(c1)CCCN2C(=O)C1CC1 (stereo not drawn) [Example 13, 6-(1-cyclopropanecarbonyl-1,2,3,4-tetrahydroquinolin-6-yl)-5-methyl-4,5-dihydro-1,2,4-triazin-3(2H)-one] | – | – | 160 | 34 | – | – |
| CC1NC(=O)NN=C1c1ccc2c(c1)CCCN2C(=O)C1CCC1 (stereo not drawn) [Example 14, 6-(1-Cyclobutanecarbonyl-1,2,3,4-tetrahydroquinolin-6-yl)-5-methyl-4,5-dihydro-1,2,4-triazin-3(2H)-one] | – | – | 250 | 81 | – | – |
| CC1NC(=O)NN=C1c1ccc2c(c1)CCCN2C (stereo not drawn) [Example 15, 6-(1-methyl-1,2,3,4-tetrahydroquinolin-6-yl)-5-methyl-4,5-dihydro-1,2,4-triazin-3(2H)-one] | – | 68 | 5800 | 2000 | – | – |
